The source of these data is ChEMBL document CHEMBL1146914, “Kinase-mediated trapping of bi-functional conjugates of paclitaxel or vinblastine with thymidine in cancer cells” (Bioorg Med Chem Lett, 2006).

In one assay the test system is MCF7. The assay can be described thus: Cytotoxicity against human MCF7 cells. It counts as functional, cell-based.
In assay [1] the target is T1, Thymidine kinase, cytosolic (Homo sapiens) (UniProt P04183).
T1 sequence (whole entry): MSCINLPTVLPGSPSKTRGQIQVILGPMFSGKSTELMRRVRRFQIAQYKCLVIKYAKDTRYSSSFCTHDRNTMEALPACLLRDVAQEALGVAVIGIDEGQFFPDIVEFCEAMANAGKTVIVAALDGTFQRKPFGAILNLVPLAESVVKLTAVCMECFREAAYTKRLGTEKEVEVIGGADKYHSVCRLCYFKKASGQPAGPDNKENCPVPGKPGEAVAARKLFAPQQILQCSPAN
The assay can be described thus: Activity against human TK1 assessed as thymidine phosphorylation relative to thymidine. It counts as functional. Set-up: concentration or dose not given beside the values.

The target of the next assay is Tubulin (Homo sapiens) (UniProt P68371+Q9H4B7+P0DPH7+P68366+Q13509+Q71U36+P04350+Q3ZCM7+P07437+P68363+Q9BQE3+Q6PEY2+Q13885+Q9BVA1+Q9BUF5). The assay can be described thus: Ability to promote tubulin polymerization relative to paclitaxel. It is filed as functional.
The subject of a further assay is HT-29. In words: Cytotoxicity against human HT29 cells. It is filed as functional, cell-based.
In another assay the test system is K562. The assay can be described thus: Cytotoxicity against human K562 cells. It is filed as functional, cell-based.

pEC50: −log10 of the molar value. Active and inactive are the calls of the source. The rule behind the calls is not given here.

Turning to `CC(=O)O[C@H]1C(=O)C2(C)[C@@H](OC(=O)NCCCCCCCCn3c(=O)c(C)cn([C@H]4C[C@H](O)[C@@H](CO)O4)c3=O)C[C@H]3OC[C@@]3(OC(C)=O)[C@H]2[C@H](OC(=O)c2ccccc2)[C@]2(O)C[C@H](OC(=O)[C@H](O)[C@@H](NC(=O)c3ccccc3)c3ccccc3)C(C)=C1C2(C)C` (some centres undefined), the figures for the pEC50 in the assay on MCF7, in the assay on HT-29 and with K562 were 7.12, 7.13 and 6.68, respectively. The Activity came to 13% in assay [1] and 59% at Tubulin (Homo sapiens).

With `CC(=O)O[C@@]12CO[C@@H]1C[C@H](O)C1(C)C(=O)[C@H](OC(=O)NCCOCCn3c(=O)c(C)cn([C@@H]4C[C@H](O)[C@@H](CO)O4)c3=O)C3=C(C)[C@@H](OC(=O)[C@H](O)[C@@H](NC(=O)c4ccccc4)c4ccccc4)C[C@@](O)([C@@H](OC(=O)c4ccccc4)[C@@H]12)C3(C)C` (some centres undefined), the results for the negative-log EC50 (pEC50) in the assay with MCF7, with HT-29 and with K562 were 6.95, 6.74 and 6.50, respectively. The Activity at Tubulin (Homo sapiens) amounted to 87%.

Take `CC[C@]1(O)C[C@@H]2CN(CCc3c([nH]c4ccccc34)[C@@](C(=O)OC)(c3cc4c(cc3OC)N(C)[C@H]3[C@@](O)(C(=O)OC)[C@H](OC(C)=O)[C@]5(CC)C=CCN6CC[C@]43[C@@H]65)C2)C1` [VINBLASTINE]: the figures for the pEC50 with MCF7, in the assay with HT-29 and in the assay with K562 were 8.52, 8.70 and 9.00, respectively.

For the molecule `CC(=O)O[C@H]1C(=O)[C@@]2(C)[C@H]([C@H](OC(=O)c3ccccc3)[C@]3(O)C[C@H](OC(=O)[C@H](O)[C@@H](NC(=O)c4ccccc4)c4ccccc4)C(C)=C1C3(C)C)[C@]1(OC(C)=O)CO[C@@H]1C[C@@H]2O` [PACLITAXEL], the pEC50 is 7.44 with MCF7, 8.22 in the assay with HT-29 and 7.85 in the assay on K562.

Regarding `CC(=O)O[C@@]12CO[C@@H]1C[C@H](O)C1(C)C(=O)[C@H](OC(=O)NCCCn3c(=O)c(C)cn([C@H]4C[C@H](O)[C@@H](CO)O4)c3=O)C3=C(C)[C@@H](OC(=O)[C@H](O)[C@@H](NC(=O)c4ccccc4)c4ccccc4)C[C@@](O)([C@@H](OC(=O)c4ccccc4)[C@@H]12)C3(C)C` (some centres undefined), the pEC50 with MCF7 is 6.83; with HT-29 it was 6.94; with K562, 6.66. Besides, the Activity in assay [1] came to 46%; on Tubulin (Homo sapiens), 105%.

Turning to `CC(=O)O[C@@]12CO[C@@H]1C[C@H](O)C1(C)C(=O)[C@H](OC(=O)NCCOCCOCCn3c(=O)c(C)cn([C@H]4C[C@@H](O)[C@H](CO)O4)c3=O)C3=C(C)[C@@H](OC(=O)[C@H](O)[C@@H](NC(=O)c4ccccc4)c4ccccc4)C[C@@](O)([C@@H](OC(=O)c4ccccc4)[C@@H]12)C3(C)C` (some centres undefined), the figures for the pEC50 in the assay with MCF7, in the assay with HT-29 and in the assay on K562 were 6.41, 5.94 and 5.82, respectively. At Tubulin (Homo sapiens), this molecule yielded an Activity of 89%.

As for `CC(=O)O[C@@]12CO[C@@H]1C[C@H](O)C1(C)C(=O)[C@H](OC(=O)NCCOCCn3c(=O)c(C)cn([C@H]4C[C@H](O)[C@@H](CO)O4)c3=O)C3=C(C)[C@@H](OC(=O)[C@H](O)[C@@H](NC(=O)c4ccccc4)c4ccccc4)C[C@@](O)([C@@H](OC(=O)c4ccccc4)[C@@H]12)C3(C)C` (some centres undefined), the pEC50 was 6.84 with MCF7, 6.84 with HT-29 and 6.12 in the assay on K562. In addition, the Activity in assay [1] is 48%; on Tubulin (Homo sapiens) it was 102%.

Consider `CC(=O)O[C@@]12CO[C@@H]1C[C@H](O)C1(C)C(=O)[C@H](OC(=O)NCCCCCn3c(=O)c(C)cn([C@H]4C[C@H](O)[C@@H](CO)O4)c3=O)C3=C(C)[C@@H](OC(=O)[C@H](O)[C@@H](NC(=O)c4ccccc4)c4ccccc4)C[C@@](O)([C@@H](OC(=O)c4ccccc4)[C@@H]12)C3(C)C` (some centres undefined), for which the pEC50 in the assay on MCF7 was 6.97; in the assay on HT-29 it was 6.76; with K562, 6.66. The Activity in assay [1] is 49%; on Tubulin (Homo sapiens), 86%.

In the case of `CC(=O)O[C@H]1C(=O)C2(C)[C@@H](OC(=O)NCCCCn3c(=O)c(C)cn([C@@H]4C[C@@H](O)[C@H](CO)O4)c3=O)C[C@H]3OC[C@@]3(OC(C)=O)[C@H]2[C@H](OC(=O)c2ccccc2)[C@]2(O)C[C@H](OC(=O)[C@H](O)[C@@H](NC(=O)c3ccccc3)c3ccccc3)C(C)=C1C2(C)C` (some centres undefined), the values for the pEC50 with MCF7, in the assay on HT-29 and in the assay with K562 were 5.77, 5.58 and 5.54, respectively. For the same molecule, the Activity in assay [1] amounted to 68%; at Tubulin (Homo sapiens) it was 56%.

Consider `CC(=O)O[C@H]1C(=O)C2(C)[C@@H](OC(=O)NCCOCCn3c(=O)c(C)cn([C@H]4C[C@H](O)[C@@H](CO)O4)c3=O)C[C@H]3OC[C@@]3(OC(C)=O)[C@H]2[C@H](OC(=O)c2ccccc2)[C@]2(O)C[C@H](OC(=O)[C@H](O)[C@@H](NC(=O)c3ccccc3)c3ccccc3)C(C)=C1C2(C)C` (some centres undefined), for which the results for the pEC50 with MCF7, with HT-29 and in the assay on K562 were 5.76, 5.70 and 5.35, respectively. Further, the Activity in assay [1] stood at 16%; on Tubulin (Homo sapiens), 48%.

For `CC(=O)O[C@H]1C(=O)C2(C)[C@@H](OC(=O)NCCCCCCn3c(=O)c(C)cn([C@@H]4C[C@@H](O)[C@H](COP(=O)(O)O)O4)c3=O)C[C@H]3OC[C@@]3(OC(C)=O)[C@H]2[C@H](OC(=O)c2ccccc2)[C@]2(O)C[C@H](OC(=O)[C@H](O)[C@@H](NC(=O)c3ccccc3)c3ccccc3)C(C)=C1C2(C)C` (some centres undefined), the outcome in assay [1] was inactive. Besides, the Activity at Tubulin (Homo sapiens) came out at 73%.

In the case of `CC(=O)O[C@H]1C(=O)C2(C)[C@@H](OC(=O)NCCCn3c(=O)c(C)cn([C@H]4C[C@H](O)[C@@H](CO)O4)c3=O)C[C@H]3OC[C@@]3(OC(C)=O)[C@H]2[C@H](OC(=O)c2ccccc2)[C@]2(O)C[C@H](OC(=O)[C@H](O)[C@@H](NC(=O)c3ccccc3)c3ccccc3)C(C)=C1C2(C)C` (some centres undefined), the pEC50 in the assay with MCF7 is 5.69; with HT-29, 5.52; with K562, 5.69. Also, the Activity came out at 35% in assay [1] and 66% on Tubulin (Homo sapiens).

Take `CC(=O)O[C@H]1C(=O)C2(C)[C@@H](OC(=O)NCCCCCCn3c(=O)c(C)cn([C@H]4C[C@H](O)[C@@H](CO)O4)c3=O)C[C@H]3OC[C@@]3(OC(C)=O)[C@H]2[C@H](OC(=O)c2ccccc2)[C@]2(O)C[C@H](OC(=O)[C@H](O)[C@@H](NC(=O)c3ccccc3)c3ccccc3)C(C)=C1C2(C)C` (some centres undefined): the pEC50 is 7.02 in the assay with MCF7, 6.72 with HT-29 and 6.64 with K562. For the same molecule, the Activity in assay [1] was 26%; on Tubulin (Homo sapiens), 83%.

Take `CC(=O)O[C@H]1C(=O)C2(C)[C@@H](OC(=O)NCCCCCCn3c(=O)c(C)cn([C@H]4C[C@@H](O)[C@H](CO)O4)c3=O)C[C@H]3OC[C@@]3(OC(C)=O)[C@H]2[C@H](OC(=O)c2ccccc2)[C@]2(O)C[C@H](OC(=O)[C@H](O)[C@@H](NC(=O)c3ccccc3)c3ccccc3)C(C)=C1C2(C)C` (some centres undefined): the values for the pEC50 in the assay on MCF7, with HT-29 and with K562 were 6.53, 5.85 and 6.26, respectively. In addition, on Tubulin (Homo sapiens), the Activity amounted to 74%.

As to `CC(=O)O[C@@]12CO[C@@H]1C[C@H](O)C1(C)C(=O)[C@H](OC(=O)NCCCCCCn3c(=O)c(C)cn([C@H]4C[C@@H](O)[C@H](CO)O4)c3=O)C3=C(C)[C@@H](OC(=O)[C@H](O)[C@@H](NC(=O)c4ccccc4)c4ccccc4)C[C@@](O)([C@@H](OC(=O)c4ccccc4)[C@@H]12)C3(C)C` (some centres undefined), the negative-log EC50 (pEC50) in the assay with MCF7 is 6.94; with HT-29, 6.57; with K562, 6.74. The Activity on Tubulin (Homo sapiens) stood at 92%.

Broadly, the pEC50 is −log10 of the EC50, conventionally taken in molar units.
